Values of other authors, collected in US7670624B2, “Gastrointestinal-specific multiple drug release system” (Astella Pharma Inc., priority 2004, dated 2010).
Where a name gives a salt, the structure may show the parent alone.

Details: in vivo

| t1/2 [h] | Compound |
| --- | --- |
| 3 | NC(N)=Nc1nc(CSCCC(N)=NS(N)(=O)=O)cs1 [Famotidine] |
| 9.5 | CN(C)c1ccc(O)c2c1C[C@H]1C[C@H]3[C@H](N(C)C)C(O)=C(C(N)=O)C(=O)[C@@]3(O)C(O)=C1C2=O [Minocycline hydrochloride] |
